The record followed here is patent US20240109881A1, “Heteroaryl Compounds as Ligand Directed Degraders of IRAK4” (Bristol-Myers Squibb Company, priority 2022, published 2024).

For the assay, the target named is T1, IRAK4 (Homo sapiens, UniProt Q9NWZ3).
T1 construct: endogenous in cells; host or cells: THP-1 cells
T1 sequence (Q9NWZ3 1-460): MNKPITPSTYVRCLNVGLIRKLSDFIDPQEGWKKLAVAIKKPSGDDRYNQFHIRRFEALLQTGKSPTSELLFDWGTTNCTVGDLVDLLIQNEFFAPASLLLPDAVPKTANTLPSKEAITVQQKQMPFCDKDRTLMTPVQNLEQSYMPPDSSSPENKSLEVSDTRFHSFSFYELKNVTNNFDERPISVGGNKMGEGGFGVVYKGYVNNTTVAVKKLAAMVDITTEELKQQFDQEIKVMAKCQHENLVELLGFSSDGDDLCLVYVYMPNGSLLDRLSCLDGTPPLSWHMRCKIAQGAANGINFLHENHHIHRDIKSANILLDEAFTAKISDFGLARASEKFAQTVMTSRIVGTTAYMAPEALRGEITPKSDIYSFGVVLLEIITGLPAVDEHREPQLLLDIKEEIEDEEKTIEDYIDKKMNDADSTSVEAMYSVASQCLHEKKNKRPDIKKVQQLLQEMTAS
The assay is described as follows: LVL THP1 HTRF (THP1 Homogeneous Time Resolved Fluorescence). The format is cell-based. Particulars: THP1 cells, 18 h incubation with compound; for DC50: read-out: LVL THP1 HTRF EC50. In a few lines: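 THP-1 cells in phenol red-free RPMI with 10% FBS were dosed with compound (20 nL in DMSO) for 18 h at 37° C. After 2 h lysis, IRAK4 was detected with anti-IRAK4-d2/anti-IRAK4-K HTRF antibodies for 18 h at room temperature and read at 665/615 nm; a parallel CTG plate was run.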
Background: In TR-FRET formats the signal depends on donor and acceptor labels being close together.

Consider `C[C@@H]1CN(CCC2CCC(c3cn(-c4cnc(-n5ncc6cc(C#N)cnc65)cc4NC4(C#N)CC4)nn3)CC2)[C@@H](C)CN1c1ccc([C@@]2(C)CCC(=O)NC2=O)cc1` (some centres unmarked) [P-240], for which the “LVL THP1 HTRF YMIN” value is 14.5% and the DC50 came to 297 nM.
Regarding `C[C@H](C#N)Nc1cc(-n2ncc3cc(C#N)cnc32)ncc1-n1cc(C2CCC(CCN3CCN(c4ccc([C@@]5(C)CCC(=O)NC5=O)cc4)[C@@H](C)C3)CC2)nn1` (some centres unmarked) [P-241], the “LVL THP1 HTRF YMIN” value came to 3.5% and the DC50 came to 39 nM.
As to `C[C@H](C#N)Nc1cc(-n2ncc3cc(C#N)c(N)nc32)ncc1-n1cc(C2CCC(CCN3[C@H](C)CN(c4ccc([C@@]5(C)CCC(=O)NC5=O)cc4)C[C@H]3C)CC2)nn1` (some centres unmarked) [P-242], the “LVL THP1 HTRF YMIN” value was determined as 2.5% and the DC50 was 23 nM.
As for `C[C@H](C#N)Nc1cc(-n2ncc3cc(C#N)cnc32)ncc1-n1cc(C2CCC(CCN3[C@H](C)CN(c4ccc([C@@]5(C)CCC(=O)NC5=O)cc4)C[C@H]3C)CC2)nn1` (some centres unmarked) [P-243], the “LVL THP1 HTRF YMIN” value was determined as 3.9% and the DC50 amounted to 159 nM.
Regarding `C[C@H](C#N)Nc1cc(-n2ncc3cc(C#N)cnc32)ncc1-n1cc(C2CCC(CCN3C[C@H](C)N(c4ccc([C@@]5(C)CCC(=O)NC5=O)cc4)C[C@H]3C)CC2)nn1` (some centres unmarked) [P-244], the “LVL THP1 HTRF YMIN” value amounted to 3.5% and the DC50 turned out to be 56 nM.
As for `C[C@H](C#N)Nc1cc(-n2ncc3cc(C#N)c(N)nc32)ncc1-n1cc(C2CCC(CCN3CCN(c4ccc([C@@]5(C)CCC(=O)NC5=O)cc4)[C@@H](C)C3)CC2)nn1` (some centres unmarked) [P-245], the “LVL THP1 HTRF YMIN” value is reported as 2.6% and the DC50 was found to be 12 nM.
As for `C[C@]1(c2ccc(N3CCN(CC[C@H]4CC[C@H](c5cn(-c6cnc(-n7ncc8cc(C#N)c(N)nc87)cc6NC6(C#N)CC6)nn5)CC4)CC3)cc2)CCC(=O)NC1=O` [P-246], the “LVL THP1 HTRF YMIN” value came out at 4.1% and the DC50 turned out to be 6.8 nM.
On the same counts, the results for `C[C@H](C#N)Nc1cc(-n2ncc3ccc(N4C[C@H]5C[C@@H]4CO5)nc32)ncc1-n1cc([C@H]2CC[C@H](CCN3CCN(c4ccc([C@@]5(C)CCC(=O)NC5=O)cc4)CC3)CC2)nn1` [P-247] are 13.4% and 191 nM.
Take `C[C@H](C#N)Nc1cc(-n2ncc3cc(C#N)c(N)nc32)ncc1C(=O)N[C@H]1CC[C@H](CCN2CCN(c3ccc([C@@]4(C)CCC(=O)NC4=O)cc3)[C@@H](C)C2)CC1` [P-248]: the “LVL THP1 HTRF YMIN” value stood at 4.1% and the DC50 amounted to 4 nM.
With `C[C@H](C#N)Nc1cc(-n2ncc3cc(C#N)c(N)nc32)ncc1C(=O)N[C@H]1CC[C@H](CCN2CCN(c3ccc([C@@]4(C)CCC(=O)NC4=O)cc3)CC2)CC1` [P-250], the “LVL THP1 HTRF YMIN” value stood at 2.4% and the DC50 is 1.2 nM.
On the same counts, the results for `C[C@H](C#N)Nc1cc(-n2ncc3cc(C#N)c(N)nc32)ncc1-n1cc([C@H]2CC[C@H](CCN3[C@@H](C)CN(c4ccc([C@@]5(C)CCC(=O)NC5=O)cc4)C[C@@H]3C)CC2)nn1` [P-251] are 1.9% and 9.8 nM.
As for `C[C@H](C#N)Nc1cc(-n2ncc3cc(C#N)c(N4C[C@H]5C[C@@H]4CO5)nc32)ncc1-n1cc([C@H]2CC[C@H](CCN3CCN(c4ccc([C@@]5(C)CCC(=O)NC5=O)cc4)CC3)CC2)nn1` [P-269], the “LVL THP1 HTRF YMIN” value was 6.3% and the DC50 was 11.8 nM.
Consider `C[C@H](C#N)Nc1cc(-n2ncc3cc(C#N)cnc32)ncc1C(=O)N[C@H]1CC[C@H](CCN2CC[C@H](c3ccc([C@@]4(C)CCC(=O)NC4=O)cc3)C[C@H]2C)CC1` [P-270], for which the “LVL THP1 HTRF YMIN” value stood at 0.2% and the DC50 was 6.5 nM.
The matching figures for `C[C@H](C#N)Nc1cc(-n2ncc3cc(C#N)cnc32)ncc1C(=O)N[C@H]1CC[C@H](CCN2CC[C@@H](c3ccc([C@@]4(C)CCC(=O)NC4=O)cc3)C[C@@H]2C)CC1` [P-271]: 9.9% and 18.8 nM.
Turning to `CC1CN(CC[C@H]2CC[C@H](NC(=O)c3cnc(-n4ncc5cc(C#N)cnc54)cc3N[C@H](C)C#N)CC2)CCC1c1ccc([C@@]2(C)CCC(=O)NC2=O)cc1` (some centres unmarked) [P-272], the “LVL THP1 HTRF YMIN” value is on record as 10.2% and the DC50 was determined as 10.3 nM.
The matching figures for `C[C@H](C#N)Nc1cc(-n2ncc3cc(C#N)cnc32)ncc1C(=O)N[C@H]1CC[C@H](CCN2CCC(c3ccc([C@@]4(C)CCC(=O)NC4=O)cc3)CC2)CC1` [P-273]: 5.6% and 4.9 nM.
The matching figures for `C[C@H](C#N)Nc1cc(-n2ncc3cc(C#N)cnc32)ncc1C(=O)N[C@H]1CC[C@H](CCN2CCC(F)(c3ccc([C@@]4(C)CCC(=O)NC4=O)cc3)CC2)CC1` [P-274]: 3.5% and 5.8 nM.
`C[C@H](C#N)Nc1cc(-n2ncc3cc(C#N)cnc32)ncc1C(=O)N[C@H]1CC[C@H](CCN2CCN(c3ccc([C@@]4(C)CCC(=O)NC4=O)cc3)[C@@H](C)C2)CC1` [P-275]: the “LVL THP1 HTRF YMIN” value worked out at 2.9% and the DC50 was found to be 14.6 nM.
On the same counts, the results for `CC1CN(CC[C@H]2CC[C@H](c3cn(-c4cnc(-n5ncc6cc(C#N)cnc65)cc4N[C@H](C)C#N)nn3)CC2)CCC1c1ccc([C@@]2(C)CCC(=O)NC2=O)cc1` (some centres unmarked) [P-285] are 10.4% and 18.5 nM.
The matching figures for `C[C@H](C#N)Nc1cc(Nc2ncc(C#N)cc2Cl)ncc1-n1cc([C@H]2CC[C@H](CCN3CCN(c4ccc([C@@]5(C)CCC(=O)NC5=O)cc4)CC3)CC2)nn1` [P-297]: 6.5% and 49.3 nM.
On the same counts, the results for `C[C@H](C#N)Nc1cc(Nc2ccc(C#N)cn2)ncc1-n1cc([C@H]2CC[C@H](CCN3CCN(c4ccc([C@@]5(C)CCC(=O)NC5=O)cc4)CC3)CC2)nn1` [P-298] are 3.2% and 82.7 nM.
As for `C[C@H](C#N)Nc1cc(Nc2ncc(C#N)cc2F)ncc1-n1cc([C@H]2CC[C@H](CCN3CCN(c4ccc([C@@]5(C)CCC(=O)NC5=O)cc4)CC3)CC2)nn1` [P-299], the “LVL THP1 HTRF YMIN” value turned out to be 3.5% and the DC50 came to 36.4 nM.
The matching figures for `C[C@H](C#N)Nc1cc(Nc2ncc(C#N)cn2)ncc1-n1cc([C@H]2CC[C@H](CCN3CCN(c4ccc([C@@]5(C)CCC(=O)NC5=O)cc4)CC3)CC2)nn1` [P-300]: 11.7% and 243 nM.
With `C[C@@H]1CN(CC[C@H]2CC[C@H](c3cn(-c4cnc(-n5ncc6cc(C#N)cnc65)cc4NC4(C#N)CC4)nn3)CC2)CCN1c1ccc([C@@]2(C)CCC(=O)NC2=O)cc1` [P-301], the “LVL THP1 HTRF YMIN” value is 17.8% and the DC50 was found to be 103 nM.
For `C[C@H](C#N)Nc1cc(-n2ncc3cc(C#N)cnc32)ncc1-n1cc([C@H]2CC[C@H](CCN3CCC(c4ccc([C@@]5(C)CCC(=O)NC5=O)cc4)C(F)C3)CC2)nn1` (some centres unmarked) [P-311], the “LVL THP1 HTRF YMIN” value is −1.0% and the DC50 amounted to 3 nM.
The matching figures for `C[C@H](C#N)Nc1cc(-c2ccc3cc(C#N)cnn23)ncc1-n1cc([C@H]2CC[C@H](CCN3CCN(c4ccc(C5CCC(=O)NC5=O)cc4)CC3)CC2)nn1` (some centres unmarked) [P-315]: 1.4% and 2.2 nM.
With `C[C@H](C#N)Nc1cc(-n2ncc3cc(C#N)cnc32)ncc1C(=O)N[C@H]1CC[C@H](CCN2CCN(c3ccc(N4CCC(=O)NC4=O)cc3)CC2)CC1` [P-321], the “LVL THP1 HTRF YMIN” value is reported as 24.2% and the DC50 stood at 645 nM.
With `C[C@H](C#N)Nc1cc(-n2ncc3cc(C#N)cnc32)ncc1-n1cc(C[C@H]2CC[C@H](CN3CCN(c4ccc(C5CCC(=O)NC5=O)cc4)CC3)CC2)nn1` (some centres unmarked) [P-322], the “LVL THP1 HTRF YMIN” value is 4.4% and the DC50 turned out to be 16.5 nM.
On to `C[C@H](C#N)Nc1cc(-n2ncc3cc(C#N)cnc32)ncc1-n1cc([C@H]2CC[C@H](CCN3CC(Oc4ccc(N5CCC(=O)NC5=O)cc4)C3)CC2)nn1` [P-324], for which the “LVL THP1 HTRF YMIN” value was found to be 107.9% and the DC50 turned out to be 1000 nM.
On to `C[C@H](C#N)Nc1cc(-n2ncc3cc(C#N)cnc32)ncc1-n1cc([C@H]2CC[C@H](CCN3CC4(CC(c5ccc(N6CCC(=O)NC6=O)cc5)C4)C3)CC2)nn1` [P-329], for which the “LVL THP1 HTRF YMIN” value stood at 2.6% and the DC50 is 5.9 nM.
On the same counts, the results for `C[C@H](C#N)Nc1cc(-n2ncc3cc(C#N)cnc32)ncc1-n1cc([C@H]2CC[C@H](CCN3CC=C(c4ccc(N5CCC(=O)NC5=O)cc4)CC3)CC2)nn1` [P-330] are 2.3% and 17.4 nM.
The matching figures for `Cc1cc(N2CCC(=O)NC2=O)ccc1C1CCN(CC[C@H]2CC[C@H](c3cn(-c4cnc(-n5ncc6cc(C#N)cnc65)cc4N[C@H](C)C#N)nn3)CC2)CC1` [P-334]: 23.5% and 58.7 nM.
The matching figures for `C[C@H](C#N)Nc1cc(-n2ncc3cc(C#N)cnc32)ncc1-n1cc([C@H]2CC[C@H](CCN3CCC(c4cccc5c(N6CCC(=O)NC6=O)nn(C)c45)CC3)CC2)nn1` [P-335]: 5.1% and 29.8 nM.
Regarding `Cc1cc(C2CCN(CC[C@H]3CC[C@H](c4cn(-c5cnc(-n6ncc7cc(C#N)cnc76)cc5N[C@H](C)C#N)nn4)CC3)CC2)ccc1N1CCC(=O)NC1=O` [P-336], the “LVL THP1 HTRF YMIN” value was determined as 5.5% and the DC50 worked out at 25.1 nM.
